Experimental findings from patent US9216186B2, “Combination of a pyrroloquinoline compound and an aminoglycodise antimicrobial agent” (HELPERBY THERAPEUTICS LIMITED, priority 2010, dated 2015) are described below.

A word on the MBC: it is the lowest tested concentration that kills the bacteria rather than only halting them. In general, MIC refers to the smallest concentration in the dilution series that meets the test's criterion for growth inhibition.

Common to all, as to type: cell-based
Experiment [1] relates to Staphylococcus aureus (Oxford). The experiment is described as follows: Minimum bactericidal concentration (MBC), subculture on drug-free TSA plates. Particulars: S. aureus (Oxford).
The test system of experiment [2] is Staphylococcus aureus (Oxford). The experiment is described as follows: Minimum inhibitory concentration (MIC), broth dilution in Iso-Sensitest broth. The following applies: S. aureus (Oxford), overnight incubation at 37° C. The procedure: Staphylococcus aureus (Oxford); Gram positive; Reference strain.
Iso-Sensitest Broth (Oxoid) was used for evaluation of Minimum inhibitory concentrations (MICs), susceptibility tests for antimicrobials, and efficacy of antimicrobial combinations.
The stock solution of each drug was diluted to required concentrations. 10 μl of drug from each dilution was taken and mixed with 290 μl of culture with 10^6 of bacterial cells on a 96-well plate to make the final required concentrations (μg/ml).
The plates were read at 405 nm using a 96-well plate reader Elx 800 equipped with a 405-nm filter (Bio-Tek) before and after incubation. The MIC values of the drugs were determined by comparison of the optical density reading between prior and post drug treatment.
A general note: Broth dilution looks for growth in wells or tubes with falling amounts of substance.

In experiment [3] the test system is stationary phase Pseudomonas aeruginosa (clinical isolate). The experiment is described as follows: Kill curve by CFU counts against stationary phase bacteria. The procedure: (§1) Pseudomonas aeruginosa (clinical isolate).
A single colony of Ps. aeruginosa was inoculated in 10 ml of Nutrient Broth No. 2 (NB) (Oxoid) which was incubated overnight at 37° C. with continuous shaking at 120 rpm. 200 μl of the overnight culture was added into a 500 ml screw-cap which contained 100 ml of NB. The 100 ml culture was incubated at 37° C. with continuous shaking for 5 to 6 days. The cultures were diluted with phosphate buffered saline to 10^7 CFU/ml.
The activities of the combination and each of the individual drugs were measured by CFU counts at 0, 2, 4, 6 and 8 hours. CFU counts were performed as follows: from serial 10-fold dilutions of the experimental cultures, 100 μl samples were added to triplicate plates of nutrient agar plates (Oxoid). Colony forming units (CFU) were counted after incubation of the plates at 37° C. for 24 hours.

In experiment [4] the test system is log phase Pseudomonas aeruginosa (clinical isolate). The experiment is described as follows: Chequerboard analysis of log phase bacteria, optical density at 405 nm / MIC. Particulars: for MIC: single agent, range up to 64 μg/ml HT61, 16 μg/ml tobramycin. As to the method: as §1
P. aeruginosa was grown in 10 ml of NB overnight at 37° C. with continuous shaking at 120 rpm. The overnight cultures were diluted 1000× with iso-sensitest broth to obtain a cell suspension containing the bacteria at 10^6 CFU/ml. The cultures were incubated at 37° C. with shaking for 1-2 hours served as log-phase cultures. Viability of the bacteria was estimated by colony forming unit (CFU) counts.
The two drugs were serially diluted twofold to 0 and combined in a pattern of an array.
The optical density of the bacterial cells was read at 405 nm using a plate reader (Bio TEK). The MIC concentration was determined as the lowest concentration of drug which inhibits the bacterial growth. The MIC values of the drugs were determined by comparison of the optical density reading between prior and post drug treatment.

Experiment [5] concerns clinically latent microorganisms. The experiment is described as follows: Screening of compounds for ability to kill clinically latent microorganisms (method of WO2000028074). Particulars: observed by the Applicant using the method of WO2000028074. An excerpt:
International Patent Application, Publication Number WO2000028074 describes a method of screening compounds to determine their ability to kill clinically latent microorganisms. […] This observation has necessitated the development of novel antimicrobials which may be used to kill clinically latent microorganisms.
By way of example, WO2000028074 describes a suitable method of screening compounds to determine their ability to kill clinically latent microorganisms. A typical method may include the following steps: • (1) growing a bacterial culture to stationary phase; • (2) treating the stationary phase culture with one or more antimicrobial agents at a concentration and or time sufficient to kill growing bacteria, thereby selecting a phenotypically resistant sub-population; • (3) incubating a sample of the phenotypically resistant subpopulation with one or more test compounds or agents; and • (4) assessing any antimicrobial effects against the phenotypically resistant subpopulation.

Where [6] appears, read: Staphylococcus aureus, read-out: MIC.

Converted amounts (≈) assume the structure as drawn. “And” between values parts separate entries of the source, which are not always exact repeats. Equal values may be shown once. Where a name gives a salt, the structure may show the parent alone. Read-outs that look alike come from different tables or passages of the source.

With `Cc1nc2ccc(Oc3ccccc3)cc2c2c1CCN2CCc1ccccc1` [4-methyl-8-phenoxy-1-(2-phenylethyl)-2,3-dihydro-1H-pyrrolo[3,2-c]quinoline], the MBC in experiment [1] (Staphylococcus aureus, read-out: MBC) stood at 16 µg/mL (≈ 42.1 µM). Also, in experiment [2] (setting [6]), the MIC is 8 µg/mL.

Turning to `Cc1nc2ccc(Oc3ccccc3)cc2c2c1CCN2CCc1ccccc1` [HT61, 4-methyl-8-phenoxy-1-(2-phenylethyl)-2,3-dihydro-1H-pyrrolo[3,2-c]quinoline mesylate], the “activity alone against stationary phase P. aeruginosa” value in experiment [3] (alone at 32, 16 and 8 μg/ml) is listed as “slight or no activities”. Moreover, the “optical density at 405 nm” value was 3.16 and 3.08 in experiment [4] (HT61 1 μg/ml alone (tobramycin 0), mesylate); 3.12 and 3.11 in experiment [4] (HT61 2 μg/ml alone (tobramycin 0), mesylate); 3.11 and 3.10 in experiment [4] (HT61 4 μg/ml alone (tobramycin 0), mesylate); 3.15 and 3.10 in experiment [4] (HT61 8 μg/ml alone (tobramycin 0), mesylate); 3.11 and 3.07 in experiment [4] (HT61 16 μg/ml alone (tobramycin 0), mesylate); 3.09 and 3.04 in experiment [4] (HT61 32 μg/ml alone (tobramycin 0), mesylate). The “optical density at 405 nm” value in experiment [4] (HT61 64 μg/ml alone (tobramycin 0), mesylate) is 3.01 and 3.09. The minimal inhibitory concentration (MIC) entry in experiment [4] (log phase P. aeruginosa) is recorded as “no MIC”. Further, the “MIC of HT61 in combination with tobramycin” value in experiment [4] (with tobramycin at 0.5 μg/ml, log phase P. aeruginosa) came out at 16 µg/mL.

Consider `NC[C@H]1O[C@H](O[C@H]2[C@H](O)[C@@H](O[C@H]3O[C@H](CO)[C@@H](O)[C@H](N)[C@H]3O)[C@H](N)C[C@@H]2N)[C@H](O)[C@@H](O)[C@@H]1O` [Kanamycin], for which the MIC in experiment [2] (setting [6]) came to 8 µg/mL.

Consider `NC[C@H]1O[C@H](O[C@H]2[C@H](O)[C@@H](O[C@H]3O[C@H](CO)[C@@H](O)[C@H](N)[C@H]3O)[C@H](N)C[C@@H]2N)[C@H](N)C[C@@H]1O` [Tobramycin], for which, in experiment [3] (alone at 2 and 1 μg/ml), the “activity alone against stationary phase P. aeruginosa” value is given as “very low or no activities”. Moreover, in experiment [4] (Pseudomonas aeruginosa, log phase P. aeruginosa, read-out: MIC), the MIC was determined as 1 µg/mL. The “optical density at 405 nm” value was 3.25 and 3.14 in experiment [4] (tobramycin 0.01563 μg/ml alone (HT61 0)); 3.24 and 3.18 in experiment [4] (tobramycin 0.03125 μg/ml alone (HT61 0)); 3.16 and 3.09 in experiment [4] (tobramycin 0.0625 μg/ml alone (HT61 0)); 3.15 and 3.08 in experiment [4] (tobramycin 0.125 μg/ml alone (HT61 0)); 3.04 and 2.97 in experiment [4] (tobramycin 0.25 μg/ml alone (HT61 0)); 2.19 and 2.18 in experiment [4] (tobramycin 0.5 μg/ml alone (HT61 0)). For the same compound, the “optical density at 405 nm” value in experiment [4] (tobramycin 1 μg/ml alone (HT61 0)) is 0.46; in experiment [4] (tobramycin 2 μg/ml alone (HT61 0)) it was 0.44 and 0.45; in experiment [4] (tobramycin 4 μg/ml alone (HT61 0)) it was 0.47 and 0.50; in experiment [4] (tobramycin 8 μg/ml alone (HT61 0)), 0.44.

As to `CC[C@H]1OC(=O)[C@H](C)[C@@H](O[C@H]2C[C@@](C)(OC)[C@@H](O)[C@H](C)O2)[C@H](C)[C@@H](O[C@@H]2O[C@H](C)C[C@H](N(C)C)[C@H]2O)[C@](C)(O)C[C@@H](C)CN(C)[C@H](C)[C@@H](O)[C@]1(C)O` [azithromycin], the “activity against clinically latent microorganisms” value in experiment [5] is reported as “little or no activity”.

Consider `CC(=O)NC[C@H]1CN(c2ccc(N3CCOCC3)c(F)c2)C(=O)O1` [linezolid], for which the “activity against clinically latent microorganisms” value in experiment [5] is given as “little or no activity”.

In the case of `C/C(=C\C(=O)OCCCCCCCCC(=O)O)C[C@@H]1OC[C@H](C[C@@H]2O[C@H]2[C@@H](C)[C@H](C)O)[C@@H](O)[C@H]1O` [mupirocin], in experiment [5], the “activity against clinically latent microorganisms” value is listed as “little or no activity”.

With Gentamicin, the minimum bactericidal concentration (MBC) in experiment [1] stood at 8 µg/mL. In experiment [2], the MIC was 1 µg/mL.

co-amoxiclav: the “activity against clinically latent microorganisms” value in experiment [5] is listed as “little or no activity”.
